Experimental data reported in patent US20140154312A1, “ORAL TARGETTED DRUG DELIVERY SYSTEM” (priority 2010, published 2014).
“Also recorded” adds a separate entry of the source.

Key:
[1] = tested on: colonic micro flora (caecal contents of the rat); assay: In vitro dissolution (drug release) of natural gum based 5-FU delivery systems in medium containing caecal contents of orally treated rats; type: physicochemical, Wister Albino rats; conditions: label = treatment given p.o. to the rats whose caecal contents (4% w/v) were used, 5-FU 8 mg/day, probiotics 1 g/day, pH 1.2 for 2 h, pH 6.8 for 3 h, then caecal medium
Protocol: (§1) To answer the questions as above, the inventors adopted an innovative experimental approach using a ‘living biological system’ comprising rats. All the experimental procedures were approved by the Institutional Animal Ethics Committee vide Approval Number 954/ac/06/CPCSEA/09/19. The experimental study was conducted on thirty Wister Albino rats. The animals were divided into 6 groups of five each.
(§2) The dosages were freshly prepared every day by suspending in milk. They were administered by oral gavage needle for first and subsequent exposure for a duration of five days each, at an interval of 20 days.
2 animals from each group were humanely sacrificed for the collection of caecal contents in sterile petri plates, which was immediately utilized for the dissolution studies. For dissolution studies, compression coated tablets of 5-FU with natural gums and microspheres of 5-FU with natural gums were used. The experiments were carried out in 250 ml beaker immersed in water maintained in the jars of dissolution test apparatus. Initial studies were carried out in 150 ml of 0.1N HCl (pH 1.2) for 2 h. After this, NaOH was added to the dissolution media and the pH was adjusted to 6.8. The volume was made up to 200 ml with phosphate buffer of pH 6.8. The study was continued for 3 hours after which, caecal contents (4% w/v) were added. […]

Albino Wister Rats = assay: Unwanted side-effects on oral administration in rats (hair, body weight, diarrhea, caecal contents, colon histopathology); type: in vivo; conditions: p.o., 5-FU 8 mg/day for 5 days, probiotics 1 g/day where given
Protocol: as §1, §2
To address whether the unwanted side-effects of colonic drugs e.g. diarrhea, hair loss etc. could also be reduced or eliminated using the ‘innovative approach’ of the present invention, trials were conducted in animals (rats) using 5-FU as a ‘model’.

O=c1[nH]cc(F)c(=O)[nH]1 [5-FU powder, 5-Fluorouracil]
% drug released in 24 h on exposure to caecal contents of the rat: Compression coated tablets of 5-FU coated with natural gums ([1]; excipient-only control rats: 83): 52%
% drug released in 24 h on exposure to caecal contents of the rat: 5-FU loaded microspheres comprising the drug and natural gums ([1]; excipient-only control rats: 92.20): 41.56%
body weight loss (Albino Wister Rats): loss
diarrhea (Albino Wister Rats): bloody diarrhea
histopathological examination of the colon (Albino Wister Rats): ulceration and loss of epithelial lining; also recorded: diffuse ulceration of the colonic mucosa with loss of lining epithelium
loss of hair (Albino Wister Rats): loss of hair
body weight loss (Albino Wister Rats; listed as 5-FU): loss of weight
loss of hair (Albino Wister Rats; listed as 5-FU): loss of weight and hair
